The test system of one data set is MCP-1. The data set is described as follows: In vitro chemotaxis (trans-well migration) v MCP-1. The format is cell-based, human. In a few lines: (§1)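 Human THP-1 monocytes (10^4-10^6) with agent at varying concentrations in upper trans-well chamber; IL-8 or MCP-1 in lower chamber at a migration-inducing concentration, 37° C for e.g. 4 hours. Migrated cells quantified by MTT (595 nm) against a THP-1 standard curve; cytotoxicity and non-chemokine chemoattractant controls run.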

In the next data set the test system is IL-8. The data set is described as follows: In vitro chemotaxis, inhibition v IL-8. It is filed as cell-based, human. The arrangement: concentration or dose not given beside the values. The procedure, abridged:
as §1

A short description of data set [1]: Half-life in rat plasma in vitro. The format is in vitro ADME. To be noted: for half-life: read-out: T ½ rat plasma in vitro (converted).
A short description of a further data set: Half-life in rat in vivo. Particulars: for half-life: read-out: T ½ rat in vivo.

Bridge positions count the residues as written; N and C are the ends. Square brackets hold non-standard residues; d marks the D form. Peptide text beside a SMILES is read from it. * marks the point of attachment. Lauroyl = CCCCCCCCCCCC(=O)*; X1 = O=C(CN1CCN(CCO)CC1)*

One may read the EC50 as the concentration at which the effect is half-maximal. `CC(C)(C)OC(=O)N[C@@H](Cc1c[nH]c2ccccc12)C(=O)NCCC(=O)NC1CCC(=O)NC1=O` (stereo partly drawn) [Example 165, BOC-Trp-βA1a-α-aminoglutaramide]: the EC50 with MCP-1 was determined as 5 nM. Moreover, in the data set on IL-8, the “v IL-8 inhibition (%)” value was determined as 111.5%. For the same molecule, the half-life in data set [1] is 240 min.
Molecule `CC[C@H](C)[C@@H]1NC(=O)[C@H](Cc2c[nH]c3ccccc23)NC(=O)[C@H](CCCCN)NC(=O)[C@@H](N)CSSC[C@@H](C(N)=O)NC(=O)[C@H](CCC(N)=O)NC1=O` [Example 1, c(Cys-Lys-Trp-Ile-Gln-Cys)-NH2] (H-CKWIQC-NH2; disulfide 1-6) gave an EC50 in the data set on MCP-1 of 12 nM. Also, the “v IL-8 inhibition (%)” value in the data set on IL-8 was 86.7%. Also, the half-life is greater than 1680 min in data set [1] and 19 min in the data set “Half-life in rat in vivo”.
`CC(C)[C@@H](CC(=O)NC1CCC(=O)NC1=O)NC(=O)[C@H](Cc1c[nH]c2ccccc12)NC(=O)OC(C)(C)C` (stereo partly drawn) [Example 184, BOC-Trp-βhVal-α-aminoglutarimide]: the EC50 in the data set on MCP-1 worked out at 10 nM. Besides, the half-life in data set [1] was 78 min.
In the data set on MCP-1, `CC[C@H](C)[C@@H]1NC(=O)[C@H](Cc2c[nH]c3ccccc23)NC(=O)[C@H](CCCCN)NC(=O)[C@H](CCC(N)=O)NC(=O)[C@H](CCCCN)NC(=O)[C@@H]2CCCN2C(=O)[C@H](CC(=O)O)NC(=O)[C@H](CC(C)C)NC(=O)[C@@H](N)CSSC[C@@H](C(N)=O)NC(=O)[C@H](CCC(N)=O)NC1=O` [Example 33, c(Cys-Leu-Asp-Pro-Lys-Gln-Lys-Trp-Ile-Gln-Cys)-NH2] (H-CLDPKQKWIQC-NH2; disulfide 1-11) had an EC50 of 20 nM. Further, the “v IL-8 inhibition (%)” value in the data set with IL-8 was 90.0%. Moreover, the half-life in data set [1] is greater than 900 min; in the data set “Half-life in rat in vivo” it was 6 min.
Turning to `CC(C)[C@H](NC(=O)[C@H](Cc1c[nH]c2ccccc12)NC(=O)OC(C)(C)C)C(=O)NC1CCC(=O)NC1=O` (stereo partly drawn) [Example 164, BOC-Trp-Val-α-aminoglutaramide], the midpoint of the response with MCP-1, the EC50, lay at 20 nM. Besides, in the data set with IL-8, the “v IL-8 inhibition (%)” value was found to be 104.4%. The half-life in data set [1] is 666 min; in “Half-life in rat in vivo”, 33 min.
Regarding `CC(C)OC(=O)N[C@@H](Cc1c[nH]c2ccccc12)C(=O)NCCC(=O)NC1CCC(=O)NC1=O` (stereo partly drawn) [Example 179, N-(isopropoxycarbonyl)-Trp-βAla-α-aminoglutarimide], the half-life in data set [1] was 546 min.
In the case of `CC(C)(C)OC(=O)N[C@@H](Cc1c[nH]c2ccccc12)C(=O)NCC(=O)NC1CCC(=O)NC1=O` (stereo partly drawn) [Example 163, BOC-Trp-Gly-α-aminoglutaramide], in the data set on MCP-1, a half-maximal effect (EC50) was put at 20 nM. In the data set with IL-8, the “v IL-8 inhibition (%)” value came out at 105.7%. Moreover, the half-life in data set [1] is 366 min.
In the data set on MCP-1, `CC[C@@H](C)[C@H]1NC(=O)[C@@H](CCC(N)=O)NC(=O)[C@H](N)CSSC[C@H](C(N)=O)NC(=O)[C@@H](CCCCN)NC(=O)[C@@H](Cc2c[nH]c3ccccc23)NC1=O` [Example 183, c(D-Cys-D-Gln-D-Ile-D-Trp-D-Lys-D-Cys)-NH2] (H-[dC][dQ][dI][dW][dK][dC]-NH2; disulfide 1-6) showed an EC50 of 20 nM. Moreover, the half-life in data set [1] is greater than 1440 min.
In the case of `CC(C)(NC(=O)[C@@H](N)Cc1c[nH]c2ccccc12)C(=O)NC1CCC(=O)NC1=O` (stereo partly drawn) [Example 188, Trp-Aib-aminoglutarimide], in the data set with MCP-1, it took 66 nM to reach a half-maximal effect (EC50). Also, the half-life in data set [1] was 186 min.
For `N[C@@H](Cc1c[nH]c2ccccc12)C(=O)NCCC(=O)NC1CCC(=O)NC1=O` (stereo partly drawn) [Example 182, Trp-βAla-α-aminoglutaramide], the EC50 in the data set on MCP-1 was determined as 6 nM. In addition, in data set [1], the half-life was 54 min.
The molecule `CC[C@H](C)[C@@H]1NC(=O)[C@H](Cc2c[nH]c3ccccc23)NC(=O)[C@H](CCCCN)NC(=O)[C@H](CCC(N)=O)NC(=O)[C@H](CCCCN)NC(=O)[C@@H]2CCCN2C(=O)[C@@H](NC(=O)[C@H](CC(=O)O)NC(=O)[C@H](CC(C)C)NC(C)=O)CSSC[C@@H](C(N)=O)NC(=O)[C@H](CCC(N)=O)NC1=O` [Example 20, Ac-Leu-Asp-c(Cys-Pro-Lys-Gln-Lys-Trp-Ile-Gln-Cys)-NH2] (Ac-LDCPKQKWIQC-NH2; disulfide 3-11) had a 50% effective concentration (EC50) with MCP-1 of 8 nM. In addition, the “v IL-8 inhibition (%)” value in the data set on IL-8 worked out at 93.9%. In the data set “Half-life in rat in vivo”, the “T ½ rat in vivo” value was 4.7 min and the half-life amounted to 2.7 min.
With “BOC-Tcc-βAla-α-aminoglutaramide [Example 171]”, the EC50 with MCP-1 is 602 nM. Besides, the “v IL-8 inhibition (%)” value with IL-8 came out at 84.6%. The “T ½ rat plasma in vitro” value in data set [1] was 510 min.
In the data set with MCP-1, `CC[C@@H](C)[C@H]1NC(=O)[C@@H](CCC(N)=O)NC(=O)[C@H](NC(=O)CN2CCN(CCO)CC2)CSSC[C@H](C(N)=O)NC(=O)[C@@H](CC(C)C)NC(=O)[C@@H](CC(=O)O)NC(=O)[C@H]2CCCN2C(=O)[C@@H](CCCCN)NC(=O)[C@@H](CCC(N)=O)NC(=O)[C@@H](CCCCN)NC(=O)[C@@H](Cc2c[nH]c3ccccc23)NC1=O` [Example 152, HEPA-c(D-Cys-D-Gln-D-Ile-D-Trp-D-Lys-D-Gln-D-Lys-D-Pro-D-Asp-D-Leu-D-Cys)-NH2] (X1-[dC][dQ][dI][dW][dK][dQ][dK][dP][dD][dL][dC]-NH2; disulfide 1-11) displayed an EC50 of 20 nM. The “v IL-8 inhibition (%)” value in the data set with IL-8 is given as 103.5%. For the same molecule, the half-life in the data set “Half-life in rat in vivo” came to 38 min.
With `CCCCCCCCCCCC(=O)NCCCC[C@H](NC(C)=O)C(=O)N[C@H]1CSSC[C@@H](C(N)=O)NC(=O)[C@H](CCC(N)=O)NC(=O)[C@H]([C@@H](C)CC)NC(=O)[C@H](Cc2c[nH]c3ccccc23)NC(=O)[C@H](CCCCN)NC(=O)[C@H](CCC(N)=O)NC(=O)[C@H](CCCCN)NC(=O)[C@@H]2CCCN2C(=O)[C@H](CC(=O)O)NC(=O)[C@H](CC(C)C)NC1=O` [Example 162, Ac-Lys(N/-dodecanoyl)-c(Cys-Leu-Asp-Pro-Lys-Gln-Lys-Trp-Ile-Gln-Cys)-NH2] (Ac-K(Lauroyl)CLDPKQKWIQC-NH2; disulfide 2-12), in the data set with MCP-1, the midpoint of the response, the EC50, lay at 20 nM. For the same molecule, the “v IL-8 inhibition (%)” value in the data set with IL-8 worked out at 101.1%. Further, in the data set “Half-life in rat in vivo”, the half-life was found to be 17 min.
For the molecule `CC[C@H](C)[C@@H]1NC(=O)[C@H](Cc2c[nH]c3ccccc23)NC(=O)[C@H](CCCCN)NC(=O)[C@H](CCC(N)=O)NC(=O)[C@H](CCCCN)NC(=O)[C@@H]2CCCN2C(=O)[C@H](CC(=O)O)NC(=O)[C@H](CC(C)C)NC(=O)[C@@H](NC(C)=O)CSSC[C@@H](C(N)=O)NC(=O)[C@H](CCC(N)=O)NC1=O` [Example 9, Ac-c(Cys-Leu-Asp-Pro-Lys-Gln-Lys-Trp-Ile-Gln-Cys)-NH2] (Ac-CLDPKQKWIQC-NH2; disulfide 1-11), the EC50 with MCP-1 came to 2 nM. Besides, the “v IL-8 inhibition (%)” value in the data set with IL-8 is recorded as 102.3%. Moreover, the half-life in “Half-life in rat in vivo” came out at 5.4 min.

Source of the values: patent publication US20110038885A1, “CHEMOKINE ANALOGS” (priority 2007, published 2011).
